Data reported in ChEMBL document CHEMBL1765061, “Synthesis of rabdokunmin C analogues and their inhibitory effect on NF-κB activation” (Bioorg Med Chem, 2011).
Activity calls are given as the source filed them. No cut-off for these calls is given here.

Experiments:
RAW264 = experiment: Inhibition of LPS-induced NO production in mouse RAW264 cells after 24 hrs; format: functional, cell-based
[1] = Cytotoxicity against mouse RAW264 cells after 2 hrs by WST reagent-based microplate reader analysis; format: cell-based; details: raw264, 2 h
HEK-293T = experiment: Cytotoxicity against human 293T cells assessed as cell viability by dual-luciferase reporter assay; format: cell-based
[2] = Inhibition of LPS-induced NF-kappaB activation in human 293T cells incubated for 30 mins followed by treated with LPS for 6 hrs by dual-luciferase reporter assay; format: cell-based; details: HEK-293T

| SMILES | inhibition (RAW264) | Activity [1] | IC50 (HEK-293T) [µM] | IC50 [2] [µM] |
| --- | --- | --- | --- | --- |
| C=C1C(=O)[C@@]23[C@H](O)C[C@@H]4[C@@](C)(CO)CCC[C@@]4(C)[C@@H]2C[C@H](O)[C@@H]1[C@H]3O [RABDOKUNMIN C] | Active | Toxic | – | – |
| C=C1C(=O)[C@@]23[C@H](O)C[C@@H]4[C@@](C)(COC(C)=O)CCC[C@@]4(C)[C@@H]2C[C@H](O)[C@@H]1[C@H]3O [ALBOPILOSIN A] | Active | Toxic | – | – |
| C=C1C(=O)[C@@]23[C@@H]4OC(C)(C)O[C@@H]2C[C@@H]2[C@@](C)(COC(C)=O)CCC[C@@]2(C)[C@@H]3C[C@H](OC(C)=O)[C@@H]14 | Active | Toxic | 1.8 | 2.01 |
| C=C1C(=O)[C@@]23[C@H](O)C[C@H]4[C@@](C)(CCC[C@]4(C)C(=O)O)[C@@H]2C[C@H](OC(C)=O)[C@@H]1[C@H]3O | Active | Toxic | – | – |
| C=C1C(=O)[C@@]23[C@H](O)C[C@@H]4[C@@](C)(COC(C)=O)CCC[C@@]4(C)[C@@H]2C=C[C@@H]1[C@H]3O | Active | Toxic | > 5 | 1.47 |
| CC1=C(O)C(=O)C=C2C1=CC=C1[C@@]2(C)CC[C@@]2(C)[C@@H]3C[C@](C)(C(=O)O)CC[C@]3(C)CC[C@]12C [CELASTROL] | Active | Toxic | 0.67 | 0.17 |
| C=C1C(=O)[C@@]23[C@H](O)C[C@@H]4[C@@](C)(COC(C)=O)CCC[C@@]4(C)[C@@H]2C[C@H](OC(C)=O)[C@@H]1[C@H]3O | Active | Toxic | 2.92 | 2 |
| C[C@H]1C(=O)[C@@]23[C@H](O)C[C@@H]4[C@@](C)(CO)CCC[C@@]4(C)[C@@H]2C[C@H](O)[C@@H]1[C@H]3O | Active | Toxic | – | – |
| C=C1C(=O)[C@@]23[C@@H]4OC(C)(C)O[C@@H]2C[C@@H]2[C@@](C)(COC(=O)C(F)(F)F)CCC[C@@]2(C)[C@@H]3C[C@H](OC(=O)C(F)(F)F)[C@@H]14 | Active | Toxic | – | – |
| C=C1C(=O)[C@@]23[C@@H]4OC(C)(C)O[C@@H]2C[C@@H]2[C@@](C)(COC(C)=O)CCC[C@@]2(C)[C@@H]3C[C@H](O)[C@@H]14 | Active | Toxic | – | – |
| C=C1C(=O)[C@@]23[C@H](O)C[C@@H]4[C@@](C)(COC(=O)CCC)CCC[C@@]4(C)[C@@H]2C[C@H](OC(=O)CCC)[C@@H]1[C@H]3O | – | – | 2.3 | 2.97 |
| C=C1C(=O)[C@]23[C@H](O)[C@H]1CC[C@H]2[C@@]12CO[C@]3(O)[C@@H](O)[C@@H]1C(C)(C)CC[C@@H]2O [ORIDONIN] | – | – | > 5 | 4.44 |
| C=C1C(=O)[C@@]23[C@H](O)C[C@@H]4[C@@](C)(COC(=O)CC)CCC[C@@]4(C)[C@@H]2C[C@H](OC(=O)CC)[C@@H]1[C@H]3O | – | – | > 5 | > 5 |
| C=C1C(=O)[C@@]23[C@@H]4OC(C)(C)O[C@@H]2C[C@@H]2[C@@](C)(CO)CCC[C@@]2(C)[C@@H]3C[C@H](OC(C)=O)[C@@H]14 | Active | Toxic | 2.39 | 1.53 |
| C=C1C(=O)[C@@]23[C@H](O)C[C@@H]4[C@@](C)(CO)CCC[C@@]4(C)[C@@H]2C=C[C@@H]1[C@H]3O | Active | Toxic | – | – |
| C=C1C(=O)[C@@]23[C@@H]4OC(C)(C)O[C@@H]2C[C@@H]2[C@@](C)(CO)CCC[C@@]2(C)[C@@H]3C[C@H](O)[C@@H]14 | Active | Toxic | – | – |
| C=C1C(=O)[C@@]23[C@@H]4OC(C)(C)O[C@@H]2C[C@@H]2[C@@](C)(CO)CCC[C@@]2(C)[C@@H]3C=C[C@@H]14 | Active | Toxic | – | – |
| C=C1C(=O)[C@@]23[C@H](O)C[C@@H]4[C@@](C)(CO)CCC[C@@]4(C)[C@@H]2C[C@H](OC(=O)CCC)[C@@H]1[C@H]3O | – | – | 1.91 | 1.68 |
| C=C1C(=O)[C@@]23[C@H](O)C[C@@H]4[C@@](C)(CO)CCC[C@@]4(C)[C@@H]2C[C@H](OC(C)=O)[C@@H]1[C@H]3O | Active | Toxic | – | – |
| C=C1C(=O)[C@@]23[C@H](O)C[C@H]4[C@@](C)(CCC[C@]4(C)C=O)[C@@H]2C[C@H](OC(C)=O)[C@@H]1[C@H]3O | Active | Toxic | – | – |
